Columns and labels:
HDAC6 = target: T1, HDAC6 (Homo sapiens, UniProt Q9UBN7); assay: HDAC enzymatic activity (Eurofins); assay type: biochemical; conditions: Class IIB; ACY-1083 mean of two separate measurements, Ricolinostat and Tubastatin A one measurement
T1 sequence (Q9UBN7 1-1215): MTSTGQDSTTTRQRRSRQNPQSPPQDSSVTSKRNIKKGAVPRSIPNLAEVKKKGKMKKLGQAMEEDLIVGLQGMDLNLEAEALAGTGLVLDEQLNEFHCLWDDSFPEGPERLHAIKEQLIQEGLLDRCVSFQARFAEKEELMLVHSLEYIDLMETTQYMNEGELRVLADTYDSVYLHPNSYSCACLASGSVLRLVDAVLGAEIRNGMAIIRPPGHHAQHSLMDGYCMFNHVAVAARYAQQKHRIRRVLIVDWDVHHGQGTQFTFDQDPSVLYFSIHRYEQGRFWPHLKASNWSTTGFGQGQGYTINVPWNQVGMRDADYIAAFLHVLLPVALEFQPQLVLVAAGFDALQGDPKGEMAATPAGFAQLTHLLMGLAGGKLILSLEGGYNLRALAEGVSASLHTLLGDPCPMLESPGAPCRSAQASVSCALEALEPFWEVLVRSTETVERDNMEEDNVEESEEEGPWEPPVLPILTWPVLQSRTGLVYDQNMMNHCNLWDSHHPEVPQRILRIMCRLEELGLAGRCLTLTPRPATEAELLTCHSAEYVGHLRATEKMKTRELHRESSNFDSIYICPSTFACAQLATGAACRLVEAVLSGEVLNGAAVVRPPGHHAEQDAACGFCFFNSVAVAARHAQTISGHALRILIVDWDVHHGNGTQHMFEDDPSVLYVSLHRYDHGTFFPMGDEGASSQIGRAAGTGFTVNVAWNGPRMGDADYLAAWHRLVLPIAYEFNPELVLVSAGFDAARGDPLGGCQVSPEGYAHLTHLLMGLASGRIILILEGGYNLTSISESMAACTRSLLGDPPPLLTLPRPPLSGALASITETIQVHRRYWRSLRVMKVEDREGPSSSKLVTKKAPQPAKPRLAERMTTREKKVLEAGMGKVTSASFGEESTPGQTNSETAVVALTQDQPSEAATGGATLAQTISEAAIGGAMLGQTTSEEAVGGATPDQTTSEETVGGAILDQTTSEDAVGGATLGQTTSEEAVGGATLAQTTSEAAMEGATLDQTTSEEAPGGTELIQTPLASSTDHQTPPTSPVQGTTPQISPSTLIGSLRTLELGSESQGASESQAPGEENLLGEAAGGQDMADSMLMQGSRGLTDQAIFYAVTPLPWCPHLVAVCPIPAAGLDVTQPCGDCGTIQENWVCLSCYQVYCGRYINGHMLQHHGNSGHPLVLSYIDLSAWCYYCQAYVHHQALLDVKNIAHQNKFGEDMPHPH

HDAC8 = target: T2, HDAC8 (Homo sapiens, UniProt Q9BY41); assay: HDAC enzymatic activity (Eurofins); assay type: biochemical; conditions: Class I; ACY-1083 mean of two separate measurements, Ricolinostat and Tubastatin A one measurement
T2 construct: purchased Eurofins Pharma Discovery Services 2247
T2 sequence (Q9BY41 1-377): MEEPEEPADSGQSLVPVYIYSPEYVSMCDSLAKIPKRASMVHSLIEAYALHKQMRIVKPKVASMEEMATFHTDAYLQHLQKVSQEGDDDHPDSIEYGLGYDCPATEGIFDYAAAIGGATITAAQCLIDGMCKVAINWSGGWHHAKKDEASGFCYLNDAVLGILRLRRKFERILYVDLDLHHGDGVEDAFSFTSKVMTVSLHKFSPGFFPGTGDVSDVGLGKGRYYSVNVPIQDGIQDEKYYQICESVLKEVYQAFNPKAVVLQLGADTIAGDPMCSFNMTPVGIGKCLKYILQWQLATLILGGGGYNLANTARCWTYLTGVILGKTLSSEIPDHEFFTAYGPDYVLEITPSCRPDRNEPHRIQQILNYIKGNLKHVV

COPD HBEC ALI cultures [1] = assay: TGF-β1 challenge in ALI, FITC-dextran permeability; assay type: cell-based, human; conditions: 10 μM pre-treatment 3 days, TGF-β 0.4, 2 and 10 ng/ml for 48 hours, two COPD donors
Protocol: The paracellular permeability was determined by using fluorescein isothiocyanate labeled 4kD-dextran (Sigma-Aldrich, St. Louis, USA). 18 hours after addition of 0.2 mg FITC-dextran in 200 μL medium to the apical side of the ALI cultures, the fluorescence in the basolateral medium was measured using PHERAstar FSX (excitation 485 nm and emission 520 nm) (BMG LABTECH, Ortenberg, Germany). The time point was chosen for optimal window in the assays as well as practical reasons and has been kept consistent in between different stimulations throughout this work. Data was plotted as fold-change of 0.1% DMSO control.
Permeability was measured after 48 hours.

IKs = target: T3, IKs (Homo sapiens, UniProt P51787); assay: Cardiovascular ion channel panel, SyncroPatch 384PE patch clamp; assay type: cell-based; conditions: CHO K1 cell line, room temperature, 6 point cumulative assay
T3 construct: expressed in transfected cells; host or cells: Chinese hamster ovary K1 cell line

[2] = Plasma protein binding, human blood plasma; assay type: in vitro ADME
Protocol: Plasma protein binding analysis was performed as reported previously using human blood plasma samples [52].

COPD HBEC ALI cultures [3] = assay: Paracellular permeability (FITC-dextran) in unchallenged ALI cultures; assay type: cell-based, human; conditions: 10 μM basolaterally for eight days, no challenge, four COPD donors, p = 0.0023
Protocol: Passage one cells were seeded into T75 cell culture flasks (250,000 cells/flask) and expanded in PneumaCult ExPlus medium (StemCell Technologies, Vancouver, Canada) at 37°C, 5% CO2. Once cells reached 70% confluency, they were dissociated with TrypLE Express dissociation media (Thermo Fisher Scientific, Waltham, USA) and frozen at -150°C in ExPlus with 10% DMSO. Passage two cells were thawed and seeded (20,000 cells/membrane) into 24-well HTS Transwell plates (Corning, Wiesbaden, Germany) for air-liquid interface (ALI) culturing. Cells were expanded in ExPlus medium until >50% confluent (four days). Apical medium was then removed, and basolateral medium was replaced with PneumaCult ALI medium (StemCell Technologies). Medium was changed three times per week during a four-week long differentiation phase.
The paracellular permeability was determined by using fluorescein isothiocyanate labeled 4kD-dextran (Sigma-Aldrich, St. Louis, USA). 18 hours after addition of 0.2 mg FITC-dextran in 200 μL medium to the apical side of the ALI cultures, the fluorescence in the basolateral medium was measured using PHERAstar FSX (excitation 485 nm and emission 520 nm) (BMG LABTECH, Ortenberg, Germany). The time point was chosen for optimal window in the assays as well as practical reasons and has been kept consistent in between different stimulations throughout this work. […]

COPD HBEC ALI cultures [4] = assay: TNF challenge model in ALI, TEER and FITC-dextran permeability; assay type: cell-based, human; conditions: 10 μM, four COPD donors

## ACY-1083
HDAC6
  IC50: < 0.01 µM
HDAC8
  IC50: 15.8 µM
COPD HBEC ALI cultures [1]
  paracellular permeability after TGF-β challenge: decreased it at all concentrations
IKs
  activity on IKs: > 30 µM
[2]
  free fraction: 23%
  stability in human plasma: stable
COPD HBEC ALI cultures [3]
  passage of FITC-dextran (paracellular permeability): significantly reduced
COPD HBEC ALI cultures [4]; TNF 0, 5, 20 and 50 ng/mL, after seven days
  TEER vs DMSO control: higher TEER at all concentrations of TNF
COPD HBEC ALI cultures [4]; TNF 5, 20 and 50 ng/mL
  paracellular permeability vs DMSO control: lower permeability at 5, 20 and 50 ng/mL TNF
